# Target: PrP^C from uninfected N2a58 cells (Mus musculus, UniProt P04925)
# Type: cell-based, murine
# Conditions: normal N2a58 cells, 3 days, 5 to 20 μM, before and after PK, FIG. 5
# Chain of PrP^C from uninfected N2a58 cells (P04925 23-230 limits assumed): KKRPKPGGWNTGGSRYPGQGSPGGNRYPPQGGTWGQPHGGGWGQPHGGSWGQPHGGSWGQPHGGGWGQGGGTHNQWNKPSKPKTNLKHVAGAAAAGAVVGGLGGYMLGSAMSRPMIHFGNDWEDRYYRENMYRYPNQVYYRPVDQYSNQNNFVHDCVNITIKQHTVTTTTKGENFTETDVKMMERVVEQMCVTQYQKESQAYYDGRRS
smiles,measurement,value
"CSc1nccc(-c2ccc(Br)s2)n1 [compound A, 4-(5-bromo-2-thienyl)-2-(methylthio)pyrimidine]",oligomeric forms of normal PrP or bands resistant to proteinase K digestion,"does not make it possible to demonstrate oligomeric forms of the normal prion protein, PrP nor the appearance of bands resistant to proteinase K digestion"
